Measured values reported in patent US6924302B2, “Substituted triazole diamine derivatives as kinase inhibitors” (Ortho McNeil Pharmaceutical, Inc., priority 2000, dated 2005).
Like-named read-outs stand apart in the source and are kept apart here.

Key:
[1] = biological target: T1, CDK2 in complex with cyclin A (Homo sapiens, UniProt P24941); experiment: Kinase Selectivity Assay CDK2; format: biochemical
T1 construct: purchased Upstate Biotech
Method: (§1) Assays to test compound inhibition of other kinases were preformed using methods that measure the amount of phosphorylation of a biotinylated peptide substrate. Biotinylated peptide substrates were selected from the literature as appropriate for the enzyme being evaluated. […] Assay conditions vary slightly for each protein kinase, for example, insulin receptor kinase requires 10 mM MnCl2 for activity and Calmodulin-dependent protein kinase requires calmodulin and 10 mM CaCl2. These assay conditions are known in the art. The reaction mixture was dispensed into the wells of a streptavidin coated Flashplate and 1 μl drug stock in 100% DMSO was added to a 100 μl reaction volume resulting in a final concentration of 1% DMSO on the reaction. Enzyme was diluted in 50 mM Tris-HCl pH=8.0, 0.1% BSA and add to each well. The reaction was incubated for one hour at 30° C. in the presence of compound. After one hour the reaction mix was aspirated from the plate and the plate was washed with PBS containing 100 mM EDTA. The plate was read on a scintillation counter to determine ^33P-γ-ATP incorporated into the immobilized peptide. Test compounds were assayed in duplicate at 8 concentrations [100 uM, 10 uM, 1 uM, 100 nM, 10 nM, 1 nM, 100 pM, 10 pM]. A maximum and minimum signal for the assay was determined on each plate. The IC50 was calculated from the dose response curve of the percent inhibition of the maximum signal in the assay according to the formula [max signal—background/test compound signal—background (100)=% inhibition] by graphing the percent inhibition against the log concentration of test compound. Known inhibitor compounds appropriate for the kinase being assayed were also included on each plate.
(§2) CDK2 in complex with cyclin A is commercially available (Upstate Biotech, Lake Placid, N.Y.). The CDK4 complex was composed of a mouse CDK4 protein and a mouse Cyclin D1 protein (The mouse CDK4 protein was genetically fused to an N-terminal Flag-epitope tag and the mouse Cyclin D1 protein was fused with an N-terminal AU-1 epitope tag. The genes encoding these proteins were transferred to commercially available baculoviral vectors. The recombinant CDK4/D1 complex was then made by co-infecting commercially available insect cells with viruses carrying these two constructs). […] ERK-1 protein (Discontinued from Calbiochem). EGFR (epidermal growth factor receptor) is purified from human A431 cell membranes (Sigma, St. Louis, Mo., Cat.# E3641).

[2] = biological target: T2, HER2 (human epidermal growth factor receptor-2) (Homo sapiens, UniProt P04626); experiment: Kinase Selectivity Assay HER2; format: biochemical
T2 construct: begins at amino acid 676 followed by the remainder of the HER2 cytoplasmic domain; polyhistidine (N)
T2 sequence (P04626 676-1255 limits assumed): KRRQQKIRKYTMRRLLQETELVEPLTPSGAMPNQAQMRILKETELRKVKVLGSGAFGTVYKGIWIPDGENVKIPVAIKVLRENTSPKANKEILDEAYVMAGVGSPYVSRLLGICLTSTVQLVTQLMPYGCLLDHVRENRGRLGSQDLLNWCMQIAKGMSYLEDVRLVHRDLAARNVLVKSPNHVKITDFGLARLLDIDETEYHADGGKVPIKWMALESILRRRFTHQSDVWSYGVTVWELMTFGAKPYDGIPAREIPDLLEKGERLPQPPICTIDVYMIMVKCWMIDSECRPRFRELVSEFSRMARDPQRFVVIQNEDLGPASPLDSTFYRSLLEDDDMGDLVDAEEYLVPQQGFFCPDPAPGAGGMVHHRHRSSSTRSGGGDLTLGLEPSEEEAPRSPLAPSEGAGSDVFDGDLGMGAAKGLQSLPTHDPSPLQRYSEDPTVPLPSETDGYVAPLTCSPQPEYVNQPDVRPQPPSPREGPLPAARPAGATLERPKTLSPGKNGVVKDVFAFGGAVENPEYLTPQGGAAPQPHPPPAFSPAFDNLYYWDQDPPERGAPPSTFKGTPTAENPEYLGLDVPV
In short: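 Reactions ran one hour at 30° C in 1% DMSO with enzyme diluted in 50 mM Tris-HCl pH 8.0, 0.1% BSA. Scintillation counting read ^33P incorporated into immobilized biotinylated peptide.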

[3] = biological target: T3, Glycogen Synthase Kinase-3 (beta isoform) (Oryctolagus cuniculus, UniProt G1T8E2); experiment: Kinase Selectivity Assay Glycogen Synthase Kinase-3; format: biochemical, rabbit; conditions: Kinase Selectivity, Tables 2a-2k; read-out: GSK-3 IC50
T3 construct: purchased New England Biolabs 6040; host or cells: E. coli
T3 sequence (G1T8E2 1-432): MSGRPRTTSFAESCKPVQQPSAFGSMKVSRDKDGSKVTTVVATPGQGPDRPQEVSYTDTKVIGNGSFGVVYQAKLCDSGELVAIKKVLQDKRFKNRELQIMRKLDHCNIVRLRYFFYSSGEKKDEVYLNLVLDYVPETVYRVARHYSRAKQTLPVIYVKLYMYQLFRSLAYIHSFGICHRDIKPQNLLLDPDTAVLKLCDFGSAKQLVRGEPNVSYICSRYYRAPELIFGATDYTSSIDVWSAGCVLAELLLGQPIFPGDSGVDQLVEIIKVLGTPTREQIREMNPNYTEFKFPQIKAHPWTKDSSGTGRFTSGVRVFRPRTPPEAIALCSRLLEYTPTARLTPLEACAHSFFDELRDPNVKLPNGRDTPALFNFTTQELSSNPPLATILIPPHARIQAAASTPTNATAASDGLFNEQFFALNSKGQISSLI
Method: as §1, §2

[4] = biological target: T4, CDK1:Cyclin-B (Homo sapiens, UniProt P06493); experiment: CDK1 Screening Assay; format: biochemical; conditions: read-out: CDK1 IC50
T4 construct: purchased New England Biolabs 6020; host or cells: insect cells
T4 sequence (P06493 whole entry): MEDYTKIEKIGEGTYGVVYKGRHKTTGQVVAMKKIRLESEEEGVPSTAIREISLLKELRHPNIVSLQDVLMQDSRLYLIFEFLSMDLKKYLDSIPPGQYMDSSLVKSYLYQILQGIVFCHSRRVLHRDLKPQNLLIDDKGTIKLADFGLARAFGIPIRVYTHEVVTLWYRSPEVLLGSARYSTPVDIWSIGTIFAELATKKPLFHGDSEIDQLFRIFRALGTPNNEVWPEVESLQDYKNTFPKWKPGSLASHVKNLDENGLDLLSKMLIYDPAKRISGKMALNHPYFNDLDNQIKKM
T4 sequence (P14635 whole entry partner): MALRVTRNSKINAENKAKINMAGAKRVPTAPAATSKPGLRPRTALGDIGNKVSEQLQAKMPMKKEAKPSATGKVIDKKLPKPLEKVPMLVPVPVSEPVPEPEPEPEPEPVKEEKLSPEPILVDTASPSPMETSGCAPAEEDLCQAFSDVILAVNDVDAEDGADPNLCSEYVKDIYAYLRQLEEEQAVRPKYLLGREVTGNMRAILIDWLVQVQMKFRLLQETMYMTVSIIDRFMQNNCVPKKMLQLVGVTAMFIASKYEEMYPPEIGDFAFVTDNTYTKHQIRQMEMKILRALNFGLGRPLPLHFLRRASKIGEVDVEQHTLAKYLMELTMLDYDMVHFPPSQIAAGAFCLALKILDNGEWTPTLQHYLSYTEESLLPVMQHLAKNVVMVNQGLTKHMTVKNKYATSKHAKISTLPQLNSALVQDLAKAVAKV
In short: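 Human CDK1:cyclin-B (30 ng/well) with biotinylated histone-H1 peptide and ^33P-γ-ATP, 1 h at 30° C, 1% DMSO, on streptavidin FlashPlate; incorporation read by scintillation.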

[5] = biological target: T5, VEGF-R (vascular endothelial growth factor receptor-2) (Rattus norvegicus, UniProt O08775); experiment: VEGF-R Screening Assay; format: biochemical; conditions: read-out: VEGF-R IC50
T5 construct: polyhistidine (6xHIS) (N)
T5 sequence (O08775 786-1343): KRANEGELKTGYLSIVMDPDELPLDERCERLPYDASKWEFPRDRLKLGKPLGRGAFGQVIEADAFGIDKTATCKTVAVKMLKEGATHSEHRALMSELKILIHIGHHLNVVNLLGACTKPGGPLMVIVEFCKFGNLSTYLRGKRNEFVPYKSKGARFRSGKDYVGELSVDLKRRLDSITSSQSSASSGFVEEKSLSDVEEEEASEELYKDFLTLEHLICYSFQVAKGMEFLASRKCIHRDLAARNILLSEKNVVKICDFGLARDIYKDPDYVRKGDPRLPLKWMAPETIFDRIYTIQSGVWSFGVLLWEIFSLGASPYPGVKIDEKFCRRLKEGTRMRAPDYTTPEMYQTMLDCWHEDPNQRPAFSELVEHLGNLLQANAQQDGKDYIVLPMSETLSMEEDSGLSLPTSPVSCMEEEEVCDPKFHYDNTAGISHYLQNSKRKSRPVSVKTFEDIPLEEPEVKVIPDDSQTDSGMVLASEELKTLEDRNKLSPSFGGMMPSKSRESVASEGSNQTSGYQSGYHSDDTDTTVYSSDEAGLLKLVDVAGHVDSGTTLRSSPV

[6] = tested on: HeLa cervical adenocarcinoma; experiment: Inhibition of Cell Proliferation (14C-thymidine incorporation), HeLa; format: cell-based; conditions: Homo sapiens, HeLa cell line
Method: (§3) The ability of a test compound to inhibit the proliferation of cell growth was determined by measuring incorporation of ^14C-labelled thymidine into newly synthesized DNA within the cells. This method was used on cell lines derived from carcinomas originating from several tissues such as HeLa cervical adenocarcinoma (American Type Culture Collection (ATCC), Virginia, Cat. #CCL-2), A375 malignant melanoma (ATCC CRL-1619), SK-OV-3 ovarian adenocarcinoma (ATCC HTB-77) HCT-116 colon carcinoma (CCL-247), PC-3 prostate adenocarcinoma (ATCC CRL-1435), and MDA-MB-231 (Xenogen Corp.) In this way the effect of a compound on cell growth of cells with many different phenotypes can be determined. Cells were trypsinized and counted and 3000-8000 cells were added to each well of a 96-well CytoStar tissue culture treated scintillating microplate (Amersham #RPNQ0160) in complete medium in a volume of 100 μl. Cells were incubated for 24 hours in complete medium at 37° C. in an atmosphere containing 5% CO2. Next, 1 μl of test compound in 100% DMSO was added to the wells of the plate. DMSO only was added to control wells. Cells were incubated for 24 more hours in complete medium at 37° C. in an atmosphere containing 5% CO2. Methyl ^14C-thymidine 56 mCi/mmol (NEN #NEC568 or Amersham #CFA532) was diluted in complete medium and 0.2 uCi/well was added to each well of the CytoStar plate in a volume of 20 μl. The plate was incubated for 24 hours at 37° C. plus 5% CO2 in drug plus ^14C-thymidine. The contents of the plate were discarded into a ^14C radioactive waste container by inverting the plate and the plate was washed twice with 200 μl PBS. 200 μl of PBS is added to each well. The top of the plate was sealed with a transparent plate sealer and a white plate backing sealer (Packard #6005199) was applied to the bottom of the plate. The degree of methyl ^14C-thymidine incorporation was quantified on a Packard Top Count.

[7] = tested on: A375 malignant melanoma; experiment: Inhibition of Cell Proliferation (14C-thymidine incorporation), A375; format: cell-based; conditions: Homo sapiens, A-375, A375 cell line
Method: as §3

[8] = biological target: Insulin Receptor Kinase (Homo sapiens, UniProt P06213); experiment: Kinase Selectivity Assay Insulin Receptor Kinase; format: biochemical; conditions: Kinase Selectivity, Tables 2a-2k; read-out: Insulin R Kinase IC50
Insulin Receptor Kinase, sequence (P06213 980-1352): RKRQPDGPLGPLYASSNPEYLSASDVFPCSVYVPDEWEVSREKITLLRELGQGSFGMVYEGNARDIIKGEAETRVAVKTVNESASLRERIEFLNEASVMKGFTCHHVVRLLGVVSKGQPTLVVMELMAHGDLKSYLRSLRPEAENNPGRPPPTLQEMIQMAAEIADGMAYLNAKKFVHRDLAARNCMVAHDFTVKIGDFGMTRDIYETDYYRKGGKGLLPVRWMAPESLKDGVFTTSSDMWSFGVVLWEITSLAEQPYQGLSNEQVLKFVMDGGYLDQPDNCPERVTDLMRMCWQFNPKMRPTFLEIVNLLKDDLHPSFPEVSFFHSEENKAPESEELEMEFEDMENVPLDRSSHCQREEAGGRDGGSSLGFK
Method: as §1, §2

[9] = biological target: T6, Casein Kinase 1 (CK1 delta isoform) (Rattus norvegicus, UniProt Q06486); experiment: Kinase Selectivity Assay Casein Kinase 1; format: biochemical; conditions: Tables 2a-2k, read-out: Caseine Kinase 1 IC50
T6 construct: a truncation at amino acid 318 of the C-terminal portion of the rat CK1 delta isoform; purchased New England Biolabs 6030; host or cells: E. coli
T6 sequence (Q06486 1-317): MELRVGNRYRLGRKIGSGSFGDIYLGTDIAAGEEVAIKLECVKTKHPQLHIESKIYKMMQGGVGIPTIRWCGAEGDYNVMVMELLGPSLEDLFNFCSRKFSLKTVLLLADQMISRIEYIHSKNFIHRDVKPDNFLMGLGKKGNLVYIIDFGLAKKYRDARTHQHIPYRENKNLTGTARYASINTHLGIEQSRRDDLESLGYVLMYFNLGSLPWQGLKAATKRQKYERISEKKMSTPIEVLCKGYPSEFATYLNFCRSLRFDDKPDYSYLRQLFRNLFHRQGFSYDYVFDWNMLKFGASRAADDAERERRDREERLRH
Method: as §1, §2

[10] = biological target: T7, Calmodulin Kinase (calmodulin-dependent protein kinase 2) (Rattus norvegicus, UniProt P11275); experiment: Kinase Selectivity Assay Calmodulin Kinase; format: biochemical; conditions: Kinase Selectivity, Tables 2a-2k; read-out: Calmodulin Kinase 2 IC50
T7 construct: a truncated version of the alpha subunit of the rat protein; purchased New England Biolabs 6060; host or cells: insect cells
Method: as §1, §2

[11] = biological target: T8, Casein Kinase 2 (alpha and beta subunits) (Homo sapiens, UniProt P68400); experiment: Kinase Selectivity Assay Casein Kinase 2; format: biochemical; conditions: Kinase Selectivity, Tables 2a-2k; read-out: Caseine Kinase 2 IC50
T8 construct: purchased New England Biolabs 6010; host or cells: E. coli
T8 sequence (P68400 whole entry): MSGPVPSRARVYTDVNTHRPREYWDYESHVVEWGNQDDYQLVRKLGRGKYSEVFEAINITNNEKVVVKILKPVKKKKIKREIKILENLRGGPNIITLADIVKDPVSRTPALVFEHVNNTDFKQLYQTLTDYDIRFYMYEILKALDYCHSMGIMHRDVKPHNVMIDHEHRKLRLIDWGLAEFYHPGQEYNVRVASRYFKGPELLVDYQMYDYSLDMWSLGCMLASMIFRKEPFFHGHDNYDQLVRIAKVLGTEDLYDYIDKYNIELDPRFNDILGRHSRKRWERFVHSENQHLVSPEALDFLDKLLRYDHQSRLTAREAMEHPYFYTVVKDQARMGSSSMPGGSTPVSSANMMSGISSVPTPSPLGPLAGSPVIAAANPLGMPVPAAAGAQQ
T8 sequence (P67870 whole entry partner): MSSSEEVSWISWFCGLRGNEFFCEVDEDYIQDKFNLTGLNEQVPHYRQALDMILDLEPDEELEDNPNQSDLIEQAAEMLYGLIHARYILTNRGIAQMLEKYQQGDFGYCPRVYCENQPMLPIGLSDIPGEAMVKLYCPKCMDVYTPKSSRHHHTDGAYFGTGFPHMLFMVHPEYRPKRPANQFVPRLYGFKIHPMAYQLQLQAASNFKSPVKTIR
Method: as §1, §2

[12] = biological target: T9, MAP Kinase (ERK-2 isoform) (Rattus norvegicus, UniProt P63086); experiment: Kinase Selectivity Assay MAP Kinase (ERK-2); format: biochemical; conditions: Kinase Selectivity, Tables 2a-2k; read-out: ERK 2 IC50
T9 construct: polyhistidine (N); host or cells: E. coli
T9 sequence (P63086 whole entry, canonical isoform): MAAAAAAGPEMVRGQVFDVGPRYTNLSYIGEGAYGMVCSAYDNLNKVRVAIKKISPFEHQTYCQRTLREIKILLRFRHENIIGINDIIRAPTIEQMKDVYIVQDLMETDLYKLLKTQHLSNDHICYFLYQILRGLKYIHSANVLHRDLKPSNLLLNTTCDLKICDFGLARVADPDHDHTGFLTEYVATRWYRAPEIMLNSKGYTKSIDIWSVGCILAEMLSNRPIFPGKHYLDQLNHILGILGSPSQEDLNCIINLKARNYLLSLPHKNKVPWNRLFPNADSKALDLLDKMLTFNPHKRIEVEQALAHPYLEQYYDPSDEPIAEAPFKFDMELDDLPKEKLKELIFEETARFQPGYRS
Method: as §1, §2

[13] = biological target: T10, Protein Kinase A (Bos taurus, UniProt P00517); experiment: Kinase Selectivity Assay Protein Kinase A; format: biochemical, bovine; conditions: Kinase Selectivity, Tables 2a-2k; read-out: PKA IC50
T10 construct: purified from bovine heart; purchased Upstate Biotech 14-114; host or cells: bovine heart
Method: as §1, §2

[14] = biological target: T11, PDGF-R (platelet derived growth factor receptor) beta subunit kinase domain (Homo sapiens, UniProt P09619); experiment: Kinase Selectivity Assay PDGF-R; format: biochemical; conditions: Kinase Selectivity, Tables 2a-2k; read-out: PDGF-R kinase IC50
T11 construct: nucleotides 1874-3507 of the human PDGF-R beta subunit kinase domain; polyhistidine (N)
T11 sequence (P09619 564-1106): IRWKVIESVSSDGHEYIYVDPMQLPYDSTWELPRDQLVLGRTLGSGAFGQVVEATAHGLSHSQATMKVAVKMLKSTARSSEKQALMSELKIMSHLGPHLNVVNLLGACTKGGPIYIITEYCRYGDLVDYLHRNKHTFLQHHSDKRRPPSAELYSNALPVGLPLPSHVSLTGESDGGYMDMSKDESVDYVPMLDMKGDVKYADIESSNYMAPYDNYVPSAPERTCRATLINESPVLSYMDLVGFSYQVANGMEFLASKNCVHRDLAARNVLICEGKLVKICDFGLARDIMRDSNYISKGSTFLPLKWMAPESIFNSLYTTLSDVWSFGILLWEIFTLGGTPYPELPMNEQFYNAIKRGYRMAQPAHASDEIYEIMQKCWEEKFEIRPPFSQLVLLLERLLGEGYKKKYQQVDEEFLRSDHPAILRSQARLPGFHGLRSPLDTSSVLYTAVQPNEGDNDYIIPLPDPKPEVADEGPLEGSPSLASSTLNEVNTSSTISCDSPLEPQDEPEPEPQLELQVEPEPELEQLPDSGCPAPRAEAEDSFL
Method: as §1, §2

[15] = tested on: HCT-116 colon carcinoma; experiment: Inhibition of Cell Proliferation (14C-thymidine incorporation), HCT-116; format: cell-based; conditions: Homo sapiens, HCT-116 cell line
Method: as §3

[16] = Kinase Selectivity, Tables 2a-2k
[17] = Kinase Selectivity, Tables 2a-2k, read-out: HER2 Kinase IC50

| Compound | IC50 [1, 16] | IC50 [2, 17] | IC50 [3] | IC50 [4, 16] | IC50 [5, 16] | IC50 ([1]; Table 1) | IC50 ([5]; Table 1) | also measured |
| --- | --- | --- | --- | --- | --- | --- | --- | --- |
| Nc1nc(Nc2ccccc2)nn1C(=O)c1c(F)cccc1F [Cpd 61, 1-(2,6-Difluorobenzoyl)-N^3-phenyl-1H-1,2,4-triazole-3,5-diamine] | 0.049 µM | 0.82 µM | 0.055 µM | 0.18 µM | 0.072 µM |  |  |  |
| Nc1nc(Nc2ccccc2)nn1C(=O)c1ccccc1 [Cpd 62, 1-benzoyl-N^3-phenyl-1H-1,2,4-triazole-3,5-diamine] | 0.29 µM | 0.41 µM | 0.073 µM | 0.53 µM | 0.064 µM |  |  |  |
| Nc1nc(Nc2cccc(Cl)c2)nn1C(=O)c1c(F)cccc1F [Cpd 63, N^3-(3-chlorophenyl)-1-(2,6-difluorobenzoyl)-1H-1,2,4-triazole-3,5-diamine] | 0.056 µM | 0.15 µM | 0.073 µM | 0.079 µM | 0.32 µM |  |  |  |
| Nc1nc(Nc2cccc(Cl)c2)nn1C(=O)c1ccccc1 [Cpd 64, 1-benzoyl-N^3-(3-chlorophenyl)-1H-1,2,4-triazole-3,5-diamine] | 0.2 µM | 0.076 µM | 0.021 µM | 0.21 µM | 0.051 µM |  |  |  |
| Nc1nc(Nc2ccccc2)nn1C(=O)Nc1ccccc1 [Cpd 65, 5-amino-N-phenyl-3-(phenylamino)-1H-1,2,4-triazole-1-carboxamide] | 0.41 µM | 0.79 µM | 0.1 µM | 0.67 µM | 0.18 µM |  |  |  |
| Nc1nc(Nc2ccc(S(N)(=O)=O)cc2)nn1C(=O)c1c(F)ccc(Cl)c1F [Cpd 78, 4-[[5-amino-1-(3-chloro-2,6-difluorobenzoyl)-1H-1,2,4-triazol-3-yl]amino]-benzenesulfonamide] |  |  |  |  |  | 0.0017 µM | 0.42 µM | IC50 ([2]; Table 1, read-out: HER2 IC50): 0.78 µM; IC50 ([4]; Table 1): 0.0066 µM |
| CNc1nc(N)n(C(=O)c2sccc2C)n1 [Cpd 79, N^3-methyl-1-[(3-methyl-2-thienyl)carbonyl]-1H-1,2,4-triazole-3,5-diamine] |  |  |  |  |  | > 100 µM | > 100 µM | IC50 ([2]; Table 1, read-out: HER2 IC50): > 100 µM; IC50 ([4]; Table 1): > 100 µM |
| CN(C)CCNS(=O)(=O)c1ccc(Nc2nc(N)n(C(=O)c3c(F)cccc3F)n2)cc1 [Cpd 106] |  |  |  |  |  | 0.001 µM | 0.559 µM | IC50 ([2]; Table 1, read-out: HER2 IC50): 37.2 µM; IC50 ([4]; Table 1): 0.125 µM |
| Cc1ccc(F)c(C(=O)n2nc(Nc3ccc(N4CCNC4=O)cc3)nc2N)c1F [Cpd 114, 1-[4-[[5-amino-1-(2,6-difluoro-3-methylbenzoyl)-1H-1,2,4-triazol-3-yl]amino]phenyl]-2-imidazolidinone] |  |  | 0.431 µM |  |  |  |  | IC50 [6]: 2530 nM; IC50 [7]: 1690 nM; IC50 [8]: > 100 µM; IC50 [9]: 2 µM; IC50 [10]: > 100 µM; IC50 [11]: > 100 µM; IC50 [12]: 15.8 µM; IC50 [13]: > 100 µM; IC50 [14]: 13.8 µM; IC50 [15]: 1380 nM |
| Nc1nc(Nc2ccccc2)n(C(=O)c2c(F)cccc2F)n1 [Cpd 124, 1-(2,6-difluorobenzoyl)-N^5-phenyl-1H-1,2,4-triazole-3,5-diamine] | 1.7 µM | 0.82 µM | 3 µM | 2.2 µM | 4.8 µM |  |  |  |
| Nc1nc(Nc2ccccc2)n(C(=O)c2ccccc2)n1 [Cpd 125, 1-benzoyl-N^5-phenyl-1H-1,2,4-triazole-3,5-diamine] | 7.3 µM | > 100 µM | > 100 µM | > 100 µM | > 100 µM |  |  |  |
| Nc1nc(Nc2ccc(S(N)(=O)=O)cc2)n(C(=S)Nc2c(F)cccc2F)n1 [Cpd 128, 3-amino-5-[[4-(aminosulfonyl)phenyl]amino]-N-(2,6-difluorophenyl)-1H-1,2,4-triazole-1-carbothioamide] |  |  | 0.094 µM |  | 0.118 µM | 0.0033 µM | 0.118 µM | IC50 [8]: 2.65 µM; IC50 [9]: 8.97 µM; IC50 [10]: 13.2 µM; IC50 [11]: > 100 µM; IC50 [12]: 2.07 µM; IC50 [13]: > 100 µM; IC50 [14]: 1.91 µM |
